Converted amounts (≈) assume the structure as drawn. The source made the active and inactive calls. The rule behind the calls is not given here.
How the values were obtained:
[1] = tested on: Escherichia coli; assay: Antibacterial activity against Escherichia coli assessed as reduction in bacterial growth by CLSI based broth microdilution method; type: functional; conditions: time 18 hrs
[2] = tested on: Enterococcus faecalis; assay: Antibacterial activity against vancomycin resistant Enterococcus faecalis assessed as reduction in bacterial growth by CLSI based broth microdilution method; type: functional; conditions: time 18 hrs
[3] = tested on: Streptococcus pneumoniae; assay: Antibacterial activity against Streptococcus pneumoniae assessed as reduction in bacterial growth by CLSI based broth microdilution method; type: functional; conditions: time 18 hrs
[4] = tested on: Staphylococcus aureus; assay: Antibacterial activity against methicillin-resistant Staphylococcus aureus assessed as reduction in bacterial growth by CLSI based broth microdilution method; type: functional; conditions: time 18 hrs
[5] = (§1) Haemolytic activity against human whole blood after 70 mins by monochromator plate reader; type: ADME, tissue-based; conditions: whole blood
[6] = tested on: Blood; assay: as §1; type: ADME, tissue-based; conditions: blood, 1.167 h
[7] = tested on: Acinetobacter baumannii; assay: Antibacterial activity against Acinetobacter baumannii ATCC 19606 assessed as growth inhibition after 18 hrs by monochromator plate assay; type: functional
[8] = tested on: Pseudomonas aeruginosa; assay: Antibacterial activity against Pseudomonas aeruginosa ATCC 27853 assessed as growth inhibition after 18 hrs by monochromator plate assay; type: functional
[9] = tested on: Klebsiella pneumoniae; assay: Antibacterial activity against Klebsiella pneumoniae ATCC 700603 assessed as growth inhibition after 18 hrs by monochromator plate assay; type: functional
[10] = tested on: Escherichia coli; assay: Antibacterial activity against Escherichia coli ATCC 25922 assessed as growth inhibition after 18 hrs by monochromator plate assay; type: functional
[11] = tested on: Staphylococcus aureus; assay: Antibacterial activity against methicillin-resistant Staphylococcus aureus ATCC 43300 assessed as growth inhibition after 18 hrs by monochromator plate assay; type: functional
[12] = tested on: Cryptococcus neoformans; assay: Antifungal activity against Cryptococcus neoformans var. grubii ATCC 208821 assessed as growth inhibition at 32 ug/ml after 36 hrs by monochromator plate assay relative to control; type: functional; conditions: dose 32.0 µg/ml
[13] = tested on: Candida albicans; assay: Antifungal activity against Candida albicans ATCC 90028 assessed as growth inhibition at 32 ug/ml after 36 hrs by monochromator plate assay relative to control; type: functional
[14] = tested on: Acinetobacter baumannii; assay: Antibacterial activity against Acinetobacter baumannii ATCC 19606 assessed as growth inhibition at 32 ug/ml after 18 hrs by monochromator plate assay relative to control; type: functional; conditions: for inhibition: dose 32.0 µg/ml
[15] = tested on: Pseudomonas aeruginosa; assay: Antibacterial activity against Pseudomonas aeruginosa ATCC 27853 assessed as growth inhibition at 32 ug/ml after 18 hrs by monochromator plate assay relative to control; type: functional; conditions: for inhibition: dose 32.0 µg/ml
[16] = tested on: Klebsiella pneumoniae; assay: Antibacterial activity against Klebsiella pneumoniae ATCC 700603 assessed as growth inhibition at 32 ug/ml after 18 hrs by microplate reader assay relative to control; type: functional; conditions: for inhibition: dose 32.0 µg/ml
[17] = tested on: Escherichia coli; assay: Antibacterial activity against Escherichia coli ATCC 25922 assessed as growth inhibition at 32 ug/ml after 18 hrs by monochromator plate assay relative to control; type: functional; conditions: dose 32.0 µg/ml
[18] = tested on: Staphylococcus aureus; assay: Antibacterial activity against methicillin-resistant Staphylococcus aureus ATCC 43300 assessed as growth inhibition at 32 ug/ml after 18 hrs by monochromator plate assay relative to control; type: functional
[19] = tested on: Candida albicans; assay: Antifungal activity against Candida albicans ATCC 90028 assessed as growth inhibition after 36 hrs by monochromator plate assay; type: functional
[20] = tested on: Cryptococcus neoformans; assay: Antifungal activity against Cryptococcus neoformans var. grubii ATCC 208821) assessed as growth inhibition after 36 hrs by monochromator plate assay relative to control; type: functional
[21] = Cytotoxicity against HEK293 cells assessed as cell viability after 20 hrs by fluorescence assay; type: cell-based; conditions: human
[22] = Inhibition of Escherichia coli DNA topoisomerase 4 assessed as reduction in decatenation of kinetoplast DNA measured after 1 hr by agarose gel electrophoresis method

## Clc1cccc(-n2nc(C3CCNCC3)cc2/C=C/c2c[nH]c3ccc(Cl)cc23)c1
[1]
  MIC: 16 µg/mL (≈ 36.6 µM)
[2]
  MIC: 2 µg/mL (≈ 4.57 µM)
[3]
  MIC: 2 µg/mL (≈ 4.57 µM)
[4]
  MIC: 2 µg/mL (≈ 4.57 µM)

## CC[C@H](C)[C@H](NC(=O)CN)C(=O)NCC(=O)N[C@@H](C)C(=O)N[C@H](C(=O)N[C@@H](CC(C)C)C(=O)N[C@@H](CCCCN)C(=O)N[C@H](C(=O)N[C@@H](CC(C)C)C(=O)N[C@H](C(=O)N[C@H](C(=O)NCC(=O)N[C@@H](CC(C)C)C(=O)N1CCC[C@H]1C(=O)N[C@@H](C)C(=O)N[C@@H](CC(C)C)C(=O)N[C@H](C(=O)N[C@@H](CO)C(=O)N[C@@H](Cc1c[nH]c2ccccc12)C(=O)N[C@H](C(=O)N[C@@H](CCCCN)C(=O)N[C@@H](CCCNC(=N)N)C(=O)N[C@@H](CCCCN)C(=O)N[C@@H](CCCNC(=N)N)C(=O)N[C@@H](CCC(N)=O)C(=O)N[C@@H](CCC(N)=O)C(N)=O)[C@@H](C)CC)[C@@H](C)CC)[C@@H](C)O)[C@@H](C)O)C(C)C)C(C)C [MELITTIN]
[5]
  HC50 at 1.167 h: 8.5 µg/mL
[6]
  HC10: 2.7 µg/mL

## Cc1nc(-c2ccc(-c3ccccc3)cc2)sc1-c1cc(C(=O)Nc2ccccc2)n[nH]1
[7]
  MIC: > 32 µg/mL
[8]
  MIC: > 32 µg/mL
[9]
  MIC: > 32 µg/mL
[10]
  MIC: inactive
[11]
  MIC: 4 µg/mL (≈ 9.16 µM)
[12]
  inhibition: inactive
[13]
  inhibition at 32 µg/mL: 9.6%
[14]
  inhibition at 32 µg/mL: 1.6%
[15]
  inhibition at 32 µg/mL: 16.6%
[16]
  inhibition at 32 µg/mL: 9.9%
[17]
  inhibition: inactive
[18]
  inhibition at 32 µg/mL: 85.1%
[19]
  MIC: > 32 µg/mL
[20]
  MIC: inactive
[21]
  CC50 at 20 h: > 32 µg/mL
[5]
  HC50 at 1.167 h: > 32 µg/mL
[6]
  HC10: > 32 µg/mL

## Cc1nc(-c2ccc(-c3cccc4c3OCO4)cc2)sc1-c1cc(C(=O)NC2CCCCC2)n[nH]1
[7]
  MIC: inactive
[8]
  MIC: > 32 µg/mL
[9]
  MIC: inactive
[10]
  MIC: inactive
[11]
  MIC: > 32 µg/mL
[12]
  inhibition: inactive
[13]
  inhibition at 32 µg/mL: 0.9%
[14]
  inhibition: inactive
[15]
  inhibition at 32 µg/mL: 6.2%
[16]
  inhibition: inactive
[17]
  inhibition: inactive
[18]
  inhibition at 32 µg/mL: 41.2%
[19]
  MIC: > 32 µg/mL
[20]
  MIC: inactive

## c1ccc(COc2ccc(-c3cc(C4CCNCC4)[nH]n3)cc2)cc1
[2]
  MIC: 64 µg/mL (≈ 192 µM)
[4]
  MIC: 64 µg/mL (≈ 192 µM)
[22]
  IC50: 128 µg/mL (≈ 384 µM)

## Cc1nc(-c2ccc(-c3ccccc3)cc2)sc1-c1cc(C(=O)Nc2ccc3c(c2)OCO3)n[nH]1
[7]
  MIC: inactive
[8]
  MIC: > 32 µg/mL
[9]
  MIC: > 32 µg/mL
[10]
  MIC: inactive
[11]
  MIC: > 32 µg/mL
[12]
  inhibition: inactive
[13]
  inhibition at 32 µg/mL: 5%
[14]
  inhibition: inactive
[15]
  inhibition at 32 µg/mL: 1.3%
[16]
  inhibition at 32 µg/mL: 7.5%
[17]
  inhibition: inactive
[18]
  inhibition at 32 µg/mL: 3.2%
[19]
  MIC: > 32 µg/mL
[20]
  MIC: inactive

## Cc1nc(-c2ccc(-c3ccccc3)cc2)sc1-c1cc(C(=O)Nc2cccc3ccccc23)n[nH]1
[7]
  MIC: > 32 µg/mL
[8]
  MIC: > 32 µg/mL
[9]
  MIC: > 32 µg/mL
[10]
  MIC: inactive
[11]
  MIC: > 32 µg/mL
[12]
  inhibition: inactive
[13]
  inhibition at 32 µg/mL: 5.1%
[14]
  inhibition at 32 µg/mL: 0.9%
[15]
  inhibition at 32 µg/mL: 8.2%
[16]
  inhibition at 32 µg/mL: 8.9%
[17]
  inhibition: inactive
[18]
  inhibition at 32 µg/mL: 14.2%
[19]
  MIC: > 32 µg/mL
[20]
  MIC: inactive

## Cc1nc(-c2ccc(-c3ccccc3)cc2)sc1-c1cc(C(=O)Nc2ccc(OC(F)F)cc2)n[nH]1
[7]
  MIC: inactive
[8]
  MIC: > 32 µg/mL
[9]
  MIC: > 32 µg/mL
[10]
  MIC: inactive
[11]
  MIC: > 32 µg/mL
[12]
  inhibition: inactive
[13]
  inhibition at 32 µg/mL: 4.7%
[14]
  inhibition: inactive
[15]
  inhibition at 32 µg/mL: 7.1%
[16]
  inhibition at 32 µg/mL: 5%
[17]
  inhibition: inactive
[18]
  inhibition at 32 µg/mL: 3.6%
[19]
  MIC: > 32 µg/mL
[20]
  MIC: inactive

## Cc1nc(-c2ccc(-c3ccccc3)cc2)sc1-c1cc(C(=O)NCC2CCCCC2)n[nH]1
[7]
  MIC: inactive
[8]
  MIC: inactive
[9]
  MIC: inactive
[10]
  MIC: inactive
[11]
  MIC: > 32 µg/mL
[12]
  inhibition: inactive
[13]; dose 32.0 µg/ml
  inhibition: inactive
[14]
  inhibition: inactive
[15]
  inhibition: inactive
[16]
  inhibition: inactive
[17]
  inhibition: inactive
[18]
  inhibition at 32 µg/mL: 4.1%
[19]
  MIC: inactive
[20]
  MIC: inactive

## Cc1nc(-c2ccc(-c3ccccc3)cc2)sc1-c1cc(C(=O)NNc2ccccc2)n[nH]1
[7]
  MIC: > 32 µg/mL
[8]
  MIC: inactive
[9]
  MIC: inactive
[10]
  MIC: inactive
[11]
  MIC: > 32 µg/mL
[12]
  inhibition: inactive
[13]
  inhibition at 32 µg/mL: 17.8%
[14]
  inhibition at 32 µg/mL: 5.5%
[15]
  inhibition: inactive
[16]
  inhibition: inactive
[17]
  inhibition: inactive
[18]
  inhibition at 32 µg/mL: 8.2%
[19]
  MIC: > 32 µg/mL
[20]
  MIC: inactive

Source: ChEMBL document CHEMBL4732221, “Design, synthesis and bioactivity evaluation of novel pyrazole linked phenylthiazole derivatives in context of antibacterial activity” (Bioorg Med Chem Lett, 2021)
